Test results from patent US20260365670A1, “EGFR INHIBITORS AND USES THEREOF” (DIZAL (JIANGSU) PHARMACEUTICAL CO., LTD., priority 2022, published 2026).
Read-outs that look alike come from different tables or passages of the source.

Legend:
EGFR wild type = target: T1, EGFR wild type (Homo sapiens, UniProt P00533); assay: Inhibition of EGFR wild type biochemical enzymatic activity (HTRF); details: 1 mM ATP
T1 construct: purchased Carna Bio
Outline: (§1)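 1 mM ATP, 1 μM biotin-TK peptide, 5 mM MgCl2, 1 mM MnCl2, 0.01% CHAPS, 1 mM DTT, 0.5% DMSO; 1 h RT; EDTA stop; HTRF 665/615 nm; IC50 via 4PL.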

EGFR L858R = target: T2, EGFR L858R (Homo sapiens, UniProt P00533, L858R); assay: Inhibition of EGFR L858R biochemical enzymatic activity (HTRF); details: 1 mM ATP
T2 construct: purchased Carna Bio
Outline: as §1

EGFR L858R/T790M = target: T3, EGFR L858R/T790M (Homo sapiens, UniProt P00533, L858R/T790M); assay: Inhibition of EGFR L858R/T790M biochemical enzymatic activity (HTRF); details: 1 mM ATP
T3 construct: purchased Carna Bio
T3 sequence (P00533 25-1210 T790M/L858R): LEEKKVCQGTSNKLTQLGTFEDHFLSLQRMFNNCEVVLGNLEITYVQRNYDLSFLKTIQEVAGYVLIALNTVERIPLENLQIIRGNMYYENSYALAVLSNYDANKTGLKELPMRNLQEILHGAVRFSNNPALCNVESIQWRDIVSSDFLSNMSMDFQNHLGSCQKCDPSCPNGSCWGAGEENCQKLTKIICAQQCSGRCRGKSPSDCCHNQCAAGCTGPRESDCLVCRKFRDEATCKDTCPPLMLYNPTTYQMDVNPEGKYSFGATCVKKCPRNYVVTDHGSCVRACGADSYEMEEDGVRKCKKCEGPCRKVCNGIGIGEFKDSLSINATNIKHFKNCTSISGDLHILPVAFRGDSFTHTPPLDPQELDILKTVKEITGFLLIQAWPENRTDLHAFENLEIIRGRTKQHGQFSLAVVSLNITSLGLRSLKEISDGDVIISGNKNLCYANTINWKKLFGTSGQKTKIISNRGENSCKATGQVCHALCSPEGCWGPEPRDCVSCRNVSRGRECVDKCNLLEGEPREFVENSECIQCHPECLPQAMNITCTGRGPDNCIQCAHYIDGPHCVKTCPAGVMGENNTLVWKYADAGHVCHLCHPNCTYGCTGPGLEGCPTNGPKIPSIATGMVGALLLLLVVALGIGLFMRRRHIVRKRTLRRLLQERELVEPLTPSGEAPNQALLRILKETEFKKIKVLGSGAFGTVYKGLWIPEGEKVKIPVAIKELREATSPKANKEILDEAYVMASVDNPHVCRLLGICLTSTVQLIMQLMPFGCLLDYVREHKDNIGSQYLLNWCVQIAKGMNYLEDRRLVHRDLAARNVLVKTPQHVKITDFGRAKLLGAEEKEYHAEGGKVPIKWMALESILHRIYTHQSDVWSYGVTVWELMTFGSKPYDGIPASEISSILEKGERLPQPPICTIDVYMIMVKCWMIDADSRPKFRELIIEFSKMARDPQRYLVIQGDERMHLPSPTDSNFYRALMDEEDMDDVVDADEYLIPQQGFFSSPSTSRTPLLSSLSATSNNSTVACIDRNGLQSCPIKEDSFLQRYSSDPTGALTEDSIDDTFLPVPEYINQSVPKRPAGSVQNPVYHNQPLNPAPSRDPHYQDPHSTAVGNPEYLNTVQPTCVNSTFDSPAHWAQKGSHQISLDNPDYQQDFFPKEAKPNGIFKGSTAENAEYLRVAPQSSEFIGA
Outline: as §1

EGFR Exon19Del = target: T4, EGFR Exon19Del (Homo sapiens, UniProt P00533, DEL746-750); assay: Inhibition of EGFR Exon19Del biochemical enzymatic activity (HTRF); details: read-out: IC50 @Del19
T4 construct: purchased Carna Bio
T4 sequence (P00533 with tags, fused parts or gaps DEL746-750 limits assumed): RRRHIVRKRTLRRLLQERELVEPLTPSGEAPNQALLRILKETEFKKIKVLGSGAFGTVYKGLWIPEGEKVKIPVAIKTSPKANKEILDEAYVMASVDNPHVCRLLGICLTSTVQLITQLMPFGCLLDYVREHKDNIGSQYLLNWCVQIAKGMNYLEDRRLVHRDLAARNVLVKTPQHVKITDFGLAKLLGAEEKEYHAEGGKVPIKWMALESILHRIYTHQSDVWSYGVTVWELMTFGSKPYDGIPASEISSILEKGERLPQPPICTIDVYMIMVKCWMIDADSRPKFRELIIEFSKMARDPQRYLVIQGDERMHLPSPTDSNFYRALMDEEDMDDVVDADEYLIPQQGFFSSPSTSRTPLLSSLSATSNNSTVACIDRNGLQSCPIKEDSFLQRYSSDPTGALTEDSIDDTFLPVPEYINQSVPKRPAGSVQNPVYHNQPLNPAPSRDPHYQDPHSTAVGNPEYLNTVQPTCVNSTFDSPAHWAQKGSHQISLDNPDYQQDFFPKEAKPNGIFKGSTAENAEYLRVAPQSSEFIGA
Outline: as §1

EGFR Exon19Del/T790M = target: T5, EGFR Exon19Del/T790M (Homo sapiens, UniProt P00533, DEL746-750/T790M); assay: Inhibition of EGFR Exon19Del/T790M biochemical enzymatic activity (HTRF); details: 1 mM ATP
T5 construct: purchased Carna Bio
T5 sequence (P00533 with tags, fused parts or gaps DEL746-750/T790M limits assumed): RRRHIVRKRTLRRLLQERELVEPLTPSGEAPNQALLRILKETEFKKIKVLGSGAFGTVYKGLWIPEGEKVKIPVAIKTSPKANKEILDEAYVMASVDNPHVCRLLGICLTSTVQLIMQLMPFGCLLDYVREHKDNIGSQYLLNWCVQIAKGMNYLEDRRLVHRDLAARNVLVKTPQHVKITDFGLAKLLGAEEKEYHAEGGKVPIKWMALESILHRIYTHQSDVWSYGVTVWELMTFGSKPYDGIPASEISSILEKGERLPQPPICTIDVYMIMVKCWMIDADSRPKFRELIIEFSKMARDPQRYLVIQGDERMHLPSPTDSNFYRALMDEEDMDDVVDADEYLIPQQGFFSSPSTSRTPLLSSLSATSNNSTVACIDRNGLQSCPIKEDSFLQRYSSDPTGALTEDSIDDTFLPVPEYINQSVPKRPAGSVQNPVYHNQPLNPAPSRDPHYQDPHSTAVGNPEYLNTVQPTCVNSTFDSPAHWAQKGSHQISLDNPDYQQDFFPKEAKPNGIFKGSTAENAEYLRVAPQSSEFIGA
Outline: as §1

EGFR[T790M/C797S/L858R] = target: T6, EGFR[T790M/C797S/L858R] (Homo sapiens, UniProt P00533, C797S/L858R/T790M); assay: Inhibition of EGFR[T790M/C797S/L858R] biochemical enzymatic activity (HTRF); details: 1 mM ATP
T6 construct: purchased Carna Bio
Outline: as §1

[1] = target: T7, EGFR[T790M/C797S/d746-750] (Homo sapiens, UniProt P00533, C797S/DEL746-750/T790M); assay: Inhibition of EGFR[T790M/C797S/d746-750] biochemical enzymatic activity (HTRF)
T7 construct: purchased Carna Bio
T7 sequence (P00533 with tags, fused parts or gaps DEL746-750/T790M/C797S limits assumed): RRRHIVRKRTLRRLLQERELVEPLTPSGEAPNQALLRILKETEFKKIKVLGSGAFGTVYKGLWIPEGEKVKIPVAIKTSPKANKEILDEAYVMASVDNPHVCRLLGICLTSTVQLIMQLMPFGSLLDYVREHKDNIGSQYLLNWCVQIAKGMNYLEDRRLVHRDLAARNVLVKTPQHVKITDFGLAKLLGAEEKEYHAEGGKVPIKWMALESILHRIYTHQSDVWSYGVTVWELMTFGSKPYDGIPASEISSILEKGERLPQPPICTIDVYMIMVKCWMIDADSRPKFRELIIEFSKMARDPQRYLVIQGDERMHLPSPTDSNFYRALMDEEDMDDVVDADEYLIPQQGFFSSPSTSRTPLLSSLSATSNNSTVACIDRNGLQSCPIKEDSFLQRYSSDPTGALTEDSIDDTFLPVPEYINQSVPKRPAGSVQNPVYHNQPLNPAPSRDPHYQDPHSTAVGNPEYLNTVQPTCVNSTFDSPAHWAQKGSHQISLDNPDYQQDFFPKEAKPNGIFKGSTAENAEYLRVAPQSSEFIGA
Outline: as §1

EGFR (d746-750 C797S) = target: T8, EGFR (d746-750 C797S) (Homo sapiens, UniProt P00533, C797S/DEL746-750); assay: Inhibition of EGFR (d746-750 C797S) biochemical enzymatic activity (HTRF); details: 1 mM ATP
T8 construct: purchased signalchem
T8 sequence (P00533 with tags, fused parts or gaps DEL746-750/C797S limits assumed): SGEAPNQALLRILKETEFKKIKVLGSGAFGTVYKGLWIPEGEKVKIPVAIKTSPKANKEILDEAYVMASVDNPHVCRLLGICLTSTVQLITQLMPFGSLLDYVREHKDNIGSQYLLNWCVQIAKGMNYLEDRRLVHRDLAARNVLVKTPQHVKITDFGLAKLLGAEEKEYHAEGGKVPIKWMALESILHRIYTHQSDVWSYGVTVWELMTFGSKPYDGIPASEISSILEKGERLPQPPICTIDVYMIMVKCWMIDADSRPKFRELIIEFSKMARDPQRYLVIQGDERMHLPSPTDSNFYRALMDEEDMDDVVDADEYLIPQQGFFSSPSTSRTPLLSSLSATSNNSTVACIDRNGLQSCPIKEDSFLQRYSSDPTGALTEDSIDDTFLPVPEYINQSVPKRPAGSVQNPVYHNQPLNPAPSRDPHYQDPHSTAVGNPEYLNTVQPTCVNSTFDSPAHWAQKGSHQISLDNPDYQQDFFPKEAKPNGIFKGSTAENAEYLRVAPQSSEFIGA
Outline: as §1

EGFR (C797S L858R) = target: T9, EGFR (C797S L858R) (Homo sapiens, UniProt P00533, C797S/L858R); assay: Inhibition of EGFR (C797S L858R) biochemical enzymatic activity (HTRF); details: 1 mM ATP
T9 construct: purchased signalchem
Outline: as §1

[2] = tested on: Ba/F3 cells expressing EGFR mutations; assay: Cell proliferation assay, Ba/F3 cells expressing EGFR mutations (CellTiter-Glo, 72 hours); assay type: cell-based
Outline: (§2)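 Cells are exposed to graded compound concentrations after overnight plating, using 500 PC-9 or 5000 Ba/F3 per well. Baseline-subtracted viability is compared with vehicle to give percent proliferation, then GI50.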

PC-9 = assay: Cell proliferation assay, PC-9 cells (CellTiter-Glo, 72 hours); assay type: cell-based; details: PC9 cells, read-out: GI50 PC9
Outline: as §2

A-431 = assay: Cell proliferation assay, A-431 cells (GI50, Table 6); assay type: cell-based
[3] = EGFR wild type, 1 h at room temperature, read-out: IC50 @WT
[4] = 1 h at room temperature, read-out: IC50 @L858R
[5] = EGFR L858R/T790M, 1 h at room temperature, read-out: IC50 @L858R-T790M
[6] = EGFR Exon19Del, 1 mM ATP, 1 h at room temperature
[7] = EGFR Exon19Del/T790M, 1 h at room temperature, read-out: IC50 @Del19-T790M
[8] = EGFR[T790M/C797S/L858R], 1 h at room temperature, read-out: IC50 @T790M- C797S - L858R
[9] = EGFR[T790M/C797S/d746-750], 1 mM ATP, 1 h at room temperature, read-out: IC50 @T790M - C797S - Del19
[10] = EGFR (d746-750 C797S), 1 h at room temperature, read-out: IC50 @Del19-C797S
[11] = EGFR (C797S L858R), 1 h at room temperature, read-out: IC50 @L858-C797S
[12] = Mus musculus, BaF3, 72 h, BaF3 cells, EGFR DEL19 - C797S, read-out: GI50 DEL19 - C797S/BaF3
[13] = Mus musculus, BaF3, 72 h, BaF3 cells, EGFR DEL19 - T790-C797S, read-out: GI50 DEL19 - T790-C797S/BaF3
[14] = Mus musculus, BaF3, 72 h, BaF3 cells, EGFR L858R - C797S, read-out: GI50 L858R - C797S/BaF3
[15] = Mus musculus, BaF3, 72 h, BaF3 cells, EGFR L858R - T790-C797S, read-out: GI50 L858R - T790-C797S/BaF3
[16] = Mus musculus, BaF3, 72 h, BaF3 cells, EGFR L858R - T790M, read-out: GI50 L858R - T790M/BaF3
[17] = Mus musculus, BaF3, 72 h, BaF3 cells, EGFR L858R, read-out: GI50 L858R/BaF3
[18] = Mus musculus, BaF3, 72 h, EGFR DEL19 - T790M, read-out: GI50 DEL19 - T790M
[19] = Homo sapiens, A-431, A-431 cells

T1 sequence (P00533 25-1210): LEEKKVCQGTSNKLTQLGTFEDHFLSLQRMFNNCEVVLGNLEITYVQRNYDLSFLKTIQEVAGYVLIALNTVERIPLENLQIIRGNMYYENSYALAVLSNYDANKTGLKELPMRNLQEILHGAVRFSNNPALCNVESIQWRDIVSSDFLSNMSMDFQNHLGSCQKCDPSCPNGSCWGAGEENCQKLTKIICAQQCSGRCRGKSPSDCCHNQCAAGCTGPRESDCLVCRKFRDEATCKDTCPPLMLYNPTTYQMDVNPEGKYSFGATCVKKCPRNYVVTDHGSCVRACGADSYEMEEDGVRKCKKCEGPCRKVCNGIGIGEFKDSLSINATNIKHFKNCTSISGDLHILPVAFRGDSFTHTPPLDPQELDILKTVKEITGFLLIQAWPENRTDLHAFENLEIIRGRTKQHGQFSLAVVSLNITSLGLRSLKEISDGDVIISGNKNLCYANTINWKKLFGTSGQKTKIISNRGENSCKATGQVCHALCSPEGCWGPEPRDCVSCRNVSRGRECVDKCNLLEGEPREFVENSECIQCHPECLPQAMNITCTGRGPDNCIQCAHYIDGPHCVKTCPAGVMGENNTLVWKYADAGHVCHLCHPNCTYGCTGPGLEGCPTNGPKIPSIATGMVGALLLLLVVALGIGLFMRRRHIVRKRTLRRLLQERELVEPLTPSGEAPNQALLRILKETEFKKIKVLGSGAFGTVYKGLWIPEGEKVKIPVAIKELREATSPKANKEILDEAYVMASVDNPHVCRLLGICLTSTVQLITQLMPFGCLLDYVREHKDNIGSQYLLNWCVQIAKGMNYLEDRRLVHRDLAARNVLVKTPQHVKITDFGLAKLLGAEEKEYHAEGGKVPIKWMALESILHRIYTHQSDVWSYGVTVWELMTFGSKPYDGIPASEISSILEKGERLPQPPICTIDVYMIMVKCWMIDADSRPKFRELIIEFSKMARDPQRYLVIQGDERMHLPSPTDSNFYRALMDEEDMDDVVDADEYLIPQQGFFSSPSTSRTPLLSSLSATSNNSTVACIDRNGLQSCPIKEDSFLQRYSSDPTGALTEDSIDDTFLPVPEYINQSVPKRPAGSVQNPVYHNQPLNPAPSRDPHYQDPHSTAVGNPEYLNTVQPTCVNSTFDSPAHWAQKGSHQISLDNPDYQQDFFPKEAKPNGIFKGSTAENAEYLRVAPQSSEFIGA

Cc1cc2cc(n1)-c1cnn(C)c1OCCCCCn1c(nc3ccc4c(c31)CCN(C1COC1)C4)NC2=O [Example B17, 5,30-Dimethyl-18-(oxetan-3-yl)-7-oxa-4,5,13,18,24,26,31-heptaazahexacyclo[26.3.1.0^{2,6}.0^{13,25}.0^{14,23}.0^{15,20}]dotriaconta-1(31),2(6),3,14,20,22,24,28(32),29-nonaen-27-one]
IC50 (EGFR wild type; [3]): > 5000 nM | IC50 (EGFR L858R; [4]): > 5000 nM | IC50 (EGFR L858R/T790M; [5]): > 5000 nM | IC50 (EGFR Exon19Del; [6]): > 5000 nM | IC50 (EGFR Exon19Del/T790M; [7]): 128 nM | IC50 (EGFR[T790M/C797S/L858R]; [8]): 4160 nM | IC50 [1, 9]: 51 nM | IC50 (EGFR (d746-750 C797S); [10]): 2110 nM | IC50 (EGFR (C797S L858R); [11]): > 5000 nM | GI50 [2, 12]: 26 nM | GI50 [2, 13]: 10 nM | GI50 [2, 14]: 82 nM | GI50 [2, 15]: 6 nM | GI50 [2, 16]: 21 nM | GI50 [2, 17]: 114 nM | GI50 [2, 18]: 8.7 nM | GI50 (PC-9; Homo sapiens, PC-9, 72 h): 71 nM | GI50 (A-431; [19]): 1090 nM

C[C@@H]1CCCOc2ccccc2-c2cc(cn(C)c2=O)C(=O)Nc2nc3ccc(N4CCN(C)CC4)cc3n2C1 [Example A109, (12R)-12,27-dimethyl-17-(4-methylpiperazin-1-yl)-8-oxa-14,21,23,27-tetraazapentacyclo[23.3.1.0^{2,7}.0^{14,22}.0^{15,20}]nonacosa-1(29),2(7),3,5,15,17,19,21,25-nonaene-24,28-dione]
IC50 (EGFR wild type; EGFR WT, 1 h, room temperature, read-out: IC50 (nM) @WT): 219 nM | IC50 (EGFR L858R; 1 h, room temperature, read-out: IC50 (nM) @L858R): 16 nM | IC50 (EGFR L858R/T790M; EGFR L858R-T790M, 1 h, room temperature, read-out: IC50 (nM) @L858R-T790M): 11 nM | IC50 (EGFR Exon19Del; EGFR Del19, 1 mM ATP, 1 h, room temperature): 4.7 nM | IC50 (EGFR Exon19Del/T790M; EGFR Del19-T790M, 1 h, room temperature, read-out: IC50 (nM) @Del19-T790M): 7.9 nM | IC50 (EGFR[T790M/C797S/L858R]; EGFR T790M-C797S-L858R, 1 h, room temperature, read-out: IC50 (nM) @T790M- C797S - L858R): 10 nM | IC50 ([1]; EGFR T790M-C797S-Del19, 1 mM ATP, 1 h, room temperature, read-out: IC50 (nM) @T790M - C797S - Del19): 7.6 nM | IC50 (EGFR (d746-750 C797S); EGFR Del19-C797S, 1 h, room temperature, read-out: IC50 (nM) @Del19-C797S): 3.1 nM | IC50 (EGFR (C797S L858R); EGFR L858-C797S, 1 h, room temperature, read-out: IC50 (nM) @L858-C797S): 9.8 nM | GI50 [2, 12]: 1.7 nM | GI50 [2, 13]: 15 nM | GI50 [2, 14]: 23 nM | GI50 [2, 15]: 27 nM | GI50 [2, 16]: 34 nM | GI50 [2, 17]: 21 nM | GI50 [2, 18]: 16 nM | GI50 (PC-9; Homo sapiens, PC-9, 72 h): 15 nM | GI50 (A-431; [19]): 489 nM

Cc1cc2cc(n1)-c1cnn(C)c1OCCN1CC3CCC(CC3)(C1)n1c(nc3ccc(N4CC[C@H](N(C)C)C4)cc31)NC2=O [Example B28]
IC50 (EGFR wild type; [3]): > 5000 nM | IC50 (EGFR L858R; [4]): 320 nM | IC50 (EGFR L858R/T790M; [5]): 17 nM | IC50 (EGFR Exon19Del; [6]): 23 nM | IC50 (EGFR Exon19Del/T790M; [7]): 9.5 nM | IC50 (EGFR[T790M/C797S/L858R]; [8]): 5.9 nM | IC50 [1, 9]: 7.8 nM | IC50 (EGFR (d746-750 C797S); [10]): 14 nM | IC50 (EGFR (C797S L858R); [11]): 145 nM | GI50 [2, 12]: 17 nM | GI50 [2, 13]: 5 nM | GI50 [2, 14]: 116 nM | GI50 [2, 15]: 11 nM | GI50 [2, 16]: 34 nM | GI50 [2, 17]: 85 nM | GI50 [2, 18]: 5 nM | GI50 (PC-9; Homo sapiens, PC-9, 72 h): 98 nM | GI50 (A-431; [19]): 7810 nM

COCCN(C)c1ccc2nc3n(c2c1)C12CCC(CN(CCOc4c(cnn4C)-c4cc(cc(C)n4)C(=O)N3)C1)C2 (single isomer, unassigned) [Example B46B]
IC50 (EGFR wild type; [3]): > 5000 nM | IC50 (EGFR L858R; [4]): 377 nM | IC50 (EGFR L858R/T790M; [5]): 12 nM | IC50 (EGFR Exon19Del; [6]): 28 nM | IC50 (EGFR Exon19Del/T790M; [7]): 7.2 nM | IC50 (EGFR[T790M/C797S/L858R]; [8]): 4.7 nM | IC50 [1, 9]: 3.7 nM | IC50 (EGFR (d746-750 C797S); [10]): 7.5 nM | IC50 (EGFR (C797S L858R); [11]): 117 nM | GI50 ([2]; BaF3 cells, EGFR DEL19 - C797S, read-out: GI50 DEL19 - C797S/BaF3): 2 nM | GI50 ([2]; BaF3 cells, EGFR DEL19 - T790-C797S, read-out: GI50 DEL19 - T790-C797S/BaF3): 2 nM | GI50 ([2]; BaF3 cells, EGFR L858R - T790-C797S, read-out: GI50 L858R - T790-C797S/BaF3): 2 nM | GI50 ([2]; BaF3 cells, EGFR L858R, read-out: GI50 L858R/BaF3): 36 nM | GI50 ([2]; EGFR DEL19 - T790M, read-out: GI50 DEL19 - T790M): 2 nM | GI50 (PC-9): 25 nM | GI50 (A-431; A-431 cells): 1360 nM

Cc1cc2cc(n1)-c1cnn(C)c1OCCCCCn1c(nc3ccc4c(c31)CCNC4)NC2=O [Example B16, 5,30-dimethyl-7-oxa-4,5,13,18,24,26,31-heptaazahexacyclo[26.3.1.0^{2,6}.0^{13,25}.0^{14,23}.0^{15,20}]dotriaconta-1(31),2(6),3,14,20,22,24,28(32),29-nonaen-27-one]
IC50 (EGFR wild type; [3]): > 5000 nM | IC50 (EGFR L858R; [4]): > 5000 nM | IC50 (EGFR L858R/T790M; [5]): 446 nM | IC50 (EGFR Exon19Del; [6]): 497 nM | IC50 (EGFR Exon19Del/T790M; [7]): 7.1 nM | IC50 (EGFR[T790M/C797S/L858R]; [8]): 55 nM | IC50 [1, 9]: 3.2 nM | IC50 (EGFR (d746-750 C797S); [10]): 197 nM | IC50 (EGFR (C797S L858R); [11]): > 5000 nM | GI50 [2, 12]: 57 nM | GI50 [2, 14]: 297 nM | GI50 [2, 15]: 8.8 nM | GI50 [2, 16]: 308 nM | GI50 [2, 17]: 286 nM | GI50 [2, 18]: 29 nM | GI50 (PC-9; Homo sapiens, PC-9, 72 h): 438 nM | GI50 (A-431; [19]): 3230 nM
